Our source for the MIC values is patent publication US11279735B2, “Cyclic peptide antibiotics” (priority 2017, dated 2022).

Values after ≈ are worked out from the molar mass of the structure shown. *1 amine or outer side, *2 acyl side, *3 side chain or, on linkers, in order; H or OH if unused. Where a SMILES comes first, the peptide text is derived from it. [ ]: non-standard residue; d: D form. The star is where a group is joined. X13 = C[C@H](CO[C@H](CC1CC2(CCC2)C1)[C@@H](C)C(=O)[*:2])N[*:1]; X2 = CCCCCC[C@@H](OC[C@@H](C)N[*:1])[C@@H](C)C(=O)[*:2]; Cyclobutyl(trans-3-NH2) = N[C@H]1C[C@H](*)C1; NMeL = CN[C@@H](CC(C)C)C(=O)O; Chg = N[C@H](C(=O)O)C1CCCCC1; NMeNva = CCC[C@H](NC)C(=O)O; Dap = NC[C@H](N)C(=O)O; X7 = NCC(O)C*

The assay relates to Escherichia coli (E. coli) strain CFT073 ATCC 700928. The assay is classed as cell-based. The note with it: ATCC 700928, 22 h. Summed up:
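MICs were read after 22 h at 35 °C, with bacteria added to a final OD600 of 0.0005. Compounds were serially diluted 2-fold over ten concentrations from a top of 64, 4, 0.5 or 0.13 μg/mL (protocols 1–4). Medium was cation-adjusted Mueller Hinton II broth plus 0.002% Tween-80, following CLSI M07-A8.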
On to `CCC[C@H]1C(=O)N[C@@H](C2CCCCC2)C(=O)N[C@@H](CN)C(=O)N[C@@H](CO[C@H]2C[C@H](N)C2)C(=O)N[C@H](C)CO[C@H](CC2CC3(CCC3)C2)[C@@H](C)C(=O)N1C` [Example 172, (3R,6S,9S,12S,15S,18R,19R)-6-(((1r,3S)-3-Aminocyclobutoxy)methyl)-9-(aminomethyl)-12-cyclohexyl-3,16,18-trimethyl-15-propyl-19-(spiro[3.3]heptan-2-ylmethyl)-1-oxa-4,7,10,13,16-pentaazacyclononadecane-5,8,11,14,17-pentaone] (cyclo([Chg][Dap]S(Cyclobutyl(trans-3-NH2))[X13][NMeNva])), for which the minimum inhibitory concentration (MIC) (usually the smallest concentration in the dilution series that meets the test's criterion for growth inhibition) came to 4.4 µM (≈ 3.28 µg/mL). In turn, `CCCCCC[C@H]1OC[C@@H](C)NC(=O)[C@H](COCC(O)CN)NC(=O)[C@H](CN)NC(=O)[C@H](C2CCCCC2)NC(=O)[C@H](CC(C)C)N(C)C(=O)[C@@H]1C` (stereo partly drawn) [Example 173, (3R,6S,9S,12S,15S,18R,19R)-6-((3-Amino-2-hydroxypropoxy)methyl)-9-(aminomethyl)-12-cyclohexyl-19-hexyl-15-isobutyl-3,16,18-trimethyl-1-oxa-4,7,10,13,16-pentaazacyclononadecane-5,8,11,14,17-pentaone] (cyclo([Chg][Dap]S(X7)[X2][NMeL])) returned an MIC of 12 µM (≈ 8.88 µg/mL). Turning to `CCCCCC[C@H]1OC[C@@H](C)NC(=O)[C@H](COc2ccc(CCN)cc2)NC(=O)[C@H](CN)NC(=O)[C@H](C2CCCCC2)NC(=O)[C@H](CC(C)C)N(C)C(=O)[C@@H]1C` [Example 174, (3R,6S,9S,12S,15S,18R,19R)-6-((4-(2-Aminoethyl)phenoxy)methyl)-9-(aminomethyl)-12-cyclohexyl-19-hexyl-15-isobutyl-3,16,18-trimethyl-1-oxa-4,7,10,13,16-pentaazacyclononadecane-5,8,11,14,17-pentaone], the minimum inhibitory concentration (MIC) was 1.6 µM (≈ 1.26 µg/mL).
